Patent US20110020252A1, “METHOD OF LONG LASTING HUMAN SKIN TANNING” (priority 2010, published 2011)

How the values were obtained:
[1] = 600 mg to 1200, up to 6 months or more, tuberculosis treatment; cited from earlier work
[2] = Safety of Rifampin at 600 to 1200 mg daily; assay type: in vivo, human; details: 600 mg to 1200 mg as a daily dose
Source text: Symptoms of overdose may include swelling of face or around eyes, itching over the entire body, orange or red discoloration of skin or eyes, nausea, vomiting, drowsiness, and loss of consciousness. If overdose is suspected, contact your local poison control center or emergency room immediately. One needs to take the prescribed amount for tanning to avoid any overdosing.
It has one of the best safety records taken for such a long time. It can be safely used for tanning in the doses of 600 to 1200 mg (dose depending on the weight) day orally for 3-5 days or till one obtains the desired tan without any untoward effects.

[3] = system: human skin; test: Skin tanning with oral Rifampin plus sun/UVR exposure (patient, volunteers, tanning booth users)
[4] = cited from earlier work
[5] = human, in vivo
[6] = system: hepatic enzyme; details: compared with Rifampin; cited from earlier work
[7] = system: skin; details: cited from earlier work

For `CO[C@H]1/C=C/O[C@@]2(C)Oc3c(C)c(O)c4c(O)c(c(/C=N/N5CCN(C)CC5)c(O)c4c3C2=O)NC(=O)/C(C)=C\C=C\[C@H](C)[C@H](O)[C@@H](C)[C@@H](O)[C@@H](C)[C@H](OC(C)=O)[C@@H]1C` [Rifampin], which adverse effects [1] is on record?
Its adverse effects is “without any serious adverse effect”.

What about the overdose effects [2] of the same compound?
Its overdose effects is “haven't noticed any overdose effects”.

And the “tanning effect by skin type” value ([3]; […])?
Its value is “more pronounced in brown skinned”.

And the dandruff production ([3]; experimental test individuals using this method of tanning)?
The dandruff production was “less dandruff production”.

What about the “skin staining of tuberculosis patients” value ([3]; use for many months with exposure to Sun light) of the same compound?
The value was “became much darkly stained”.

What about the tanning result ([3]; volunteers and tanning booth users, minimum UVR exposure) of the same compound?
Its tanning result is “good natural looking long lasting tanning”.

What about the “plasma levels, mean” value ([4]; 600 mg dose on an empty stomach) of the same compound?
The value was 7 µg/mL.

What about the “effect of antacids on absorption” value ([4]; antacids) of the same compound?
Its value is “do not affect absorption”.

What about the “administered drug excreted unchanged through the urine” value ([4]; in vivo) of the same compound?
Its value is “about 7%”.

What about the “excretion into breast milk” value ([4]; in vivo) of the same compound?
The value was “excreted into breast milk”.

What about the “fraction metabolized by the liver microsomal enzymes” value ([4]; in vivo) of the same compound?
Its value is “Approximately 85%”.

And the “time after which almost the entire drug is deacetylated” value ([4]; in vivo)?
The value was “about 6 hours”.

And the “urinary elimination, share of the dose that is excreted” value ([4]; in vivo)?
Its value is “about 30%”.

What about the “time to peak plasma concentrations” value ([4]; orally administered) of the same compound?
Its value is 1 to 2 h.

What about the “peak blood concentration when taken with a meal” value ([4]; taken with a meal) of the same compound?
The value was 36%.

What about the “dose eliminated within 24 hours” value ([4]; within 24 hours) of the same compound?
Its value is “Approximately 50%”.

And the “time until urine and facial orange coloration disappears” value [5]?
The value was at most 24 h.

Which hepatic enzyme induction [6] does the source give for `CO[C@H]1/C=C/O[C@@]2(C)Oc3c(C)c(O)c4c(c3C2=O)C2=NC3(CCN(CC(C)C)CC3)NC2=C(NC(=O)/C(C)=C\C=C\[C@H](C)[C@H](O)[C@@H](C)[C@@H](O)[C@@H](C)[C@H](OC(C)=O)[C@@H]1C)C4=O` [Rifabutin] here?
The hepatic enzyme induction was “less hepatic enzyme induction”.

With `O=C[C@H](O)[C@H](O)[C@H](O)CO` [D-ribose] as the compound, how does the “effect on wound surface” value ([7]; applied directly to a wound) read?
The value was “caused the surface to become brown”.

What about the effect on tanning ([7]; in water applied to the skin) of the same compound?
Its effect on tanning is “showed no such effect on tanning”.
